# Source: the CheMixHub viscosity set
# ± gives the uncertainty stated by the source.
# Test: xn = mol fraction of the nth substance listed
smiles,measurement,setting,value
C=Cc1ccccc1 + CCCCCCO,viscosity,"298.15 K, 101.33 kPa, x1 = 0.0998",3.131 ± 0.14 mPa·s
same,viscosity,"298.15 K, 101.33 kPa, x1 = 0.2024",2.522 ± 0.11 mPa·s
same,viscosity,"298.15 K, 101.33 kPa, x1 = 0.3078",1.956 ± 0.09 mPa·s
same,viscosity,"298.15 K, 101.33 kPa, x1 = 0.4006",1.613 ± 0.076 mPa·s
same,viscosity,"298.15 K, 101.33 kPa, x1 = 0.5007",1.293 ± 0.062 mPa·s
same,viscosity,"298.15 K, 101.33 kPa, x1 = 0.5988",1.134 ± 0.055 mPa·s
same,viscosity,"298.15 K, 101.33 kPa, x1 = 0.6993",0.972 ± 0.048 mPa·s
same,viscosity,"298.15 K, 101.33 kPa, x1 = 0.7986",0.891 ± 0.045 mPa·s
same,viscosity,"298.15 K, 101.33 kPa, x1 = 0.8985",0.808 ± 0.041 mPa·s
same,viscosity,"303.15 K, 101.33 kPa, x1 = 0.0998",2.773 ± 0.12 mPa·s
same,viscosity,"303.15 K, 101.33 kPa, x1 = 0.2024",2.177 ± 0.1 mPa·s
same,viscosity,"303.15 K, 101.33 kPa, x1 = 0.3078",1.703 ± 0.079 mPa·s
same,viscosity,"303.15 K, 101.33 kPa, x1 = 0.4006",1.446 ± 0.068 mPa·s
same,viscosity,"303.15 K, 101.33 kPa, x1 = 0.5007",1.154 ± 0.056 mPa·s
same,viscosity,"303.15 K, 101.33 kPa, x1 = 0.5988",1.051 ± 0.052 mPa·s
same,viscosity,"303.15 K, 101.33 kPa, x1 = 0.6993",0.89 ± 0.045 mPa·s
same,viscosity,"303.15 K, 101.33 kPa, x1 = 0.7986",0.84 ± 0.042 mPa·s
same,viscosity,"303.15 K, 101.33 kPa, x1 = 0.8985",0.747 ± 0.038 mPa·s
same,viscosity,"308.15 K, 101.33 kPa, x1 = 0.0998",2.296 ± 0.11 mPa·s
same,viscosity,"308.15 K, 101.33 kPa, x1 = 0.2024",1.88 ± 0.087 mPa·s
same,viscosity,"308.15 K, 101.33 kPa, x1 = 0.3078",1.497 ± 0.071 mPa·s
same,viscosity,"308.15 K, 101.33 kPa, x1 = 0.4006",1.298 ± 0.062 mPa·s
same,viscosity,"308.15 K, 101.33 kPa, x1 = 0.5007",1.114 ± 0.054 mPa·s
same,viscosity,"308.15 K, 101.33 kPa, x1 = 0.5988",1.008 ± 0.05 mPa·s
same,viscosity,"308.15 K, 101.33 kPa, x1 = 0.6993",0.86 ± 0.043 mPa·s
same,viscosity,"308.15 K, 101.33 kPa, x1 = 0.7986",0.81 ± 0.041 mPa·s
same,viscosity,"308.15 K, 101.33 kPa, x1 = 0.8985",0.693 ± 0.036 mPa·s
CC(=O)c1ccc(Cl)cc1 + CCCCCCO,viscosity,"303.15 K, 101 kPa, x1 = 0.0521",3.667 ± 0.027 mPa·s
same,viscosity,"303.15 K, 101 kPa, x1 = 0.1009",3.442 ± 0.026 mPa·s
same,viscosity,"303.15 K, 101 kPa, x1 = 0.1668",3.212 ± 0.024 mPa·s
same,viscosity,"303.15 K, 101 kPa, x1 = 0.2325",2.982 ± 0.022 mPa·s
same,viscosity,"303.15 K, 101 kPa, x1 = 0.3002",2.791 ± 0.021 mPa·s
same,viscosity,"303.15 K, 101 kPa, x1 = 0.4028",2.603 ± 0.02 mPa·s
same,viscosity,"303.15 K, 101 kPa, x1 = 0.5001",2.511 ± 0.019 mPa·s
same,viscosity,"303.15 K, 101 kPa, x1 = 0.5708",2.462 ± 0.019 mPa·s
same,viscosity,"303.15 K, 101 kPa, x1 = 0.641",2.437 ± 0.018 mPa·s
same,viscosity,"303.15 K, 101 kPa, x1 = 0.6998",2.428 ± 0.018 mPa·s
same,viscosity,"303.15 K, 101 kPa, x1 = 0.7655",2.448 ± 0.019 mPa·s
same,viscosity,"303.15 K, 101 kPa, x1 = 0.8376",2.502 ± 0.019 mPa·s
same,viscosity,"303.15 K, 101 kPa, x1 = 0.9007",2.589 ± 0.02 mPa·s
same,viscosity,"303.15 K, 101 kPa, x1 = 0.9513",2.717 ± 0.02 mPa·s
CCCCCCCCO + CCCCCCO,viscosity,"298.15 K, 101.8 kPa, x2 = 0.1207",7.227 ± 0.35 mPa·s
same,viscosity,"298.15 K, 101.8 kPa, x2 = 0.3506",6.442 ± 0.34 mPa·s
same,viscosity,"298.15 K, 101.8 kPa, x2 = 0.5615",5.793 ± 0.34 mPa·s
same,viscosity,"298.15 K, 101.8 kPa, x2 = 0.7463",5.234 ± 0.34 mPa·s
same,viscosity,"298.15 K, 101.8 kPa, x2 = 0.9227",4.736 ± 0.34 mPa·s
same,viscosity,"308.15 K, 101.8 kPa, x2 = 0.1207",5.209 ± 0.34 mPa·s
same,viscosity,"308.15 K, 101.8 kPa, x2 = 0.3506",4.695 ± 0.33 mPa·s
same,viscosity,"308.15 K, 101.8 kPa, x2 = 0.5615",4.259 ± 0.33 mPa·s
same,viscosity,"308.15 K, 101.8 kPa, x2 = 0.7463",3.879 ± 0.33 mPa·s
same,viscosity,"308.15 K, 101.8 kPa, x2 = 0.9227",3.53 ± 0.33 mPa·s
same,viscosity,"318.15 K, 101.8 kPa, x2 = 0.1207",3.833 ± 0.33 mPa·s
same,viscosity,"318.15 K, 101.8 kPa, x2 = 0.3506",3.481 ± 0.33 mPa·s
same,viscosity,"318.15 K, 101.8 kPa, x2 = 0.5615",3.18 ± 0.33 mPa·s
same,viscosity,"318.15 K, 101.8 kPa, x2 = 0.7463",2.914 ± 0.33 mPa·s
same,viscosity,"318.15 K, 101.8 kPa, x2 = 0.9227",2.671 ± 0.32 mPa·s
BrC(Br)Br + CCCCCO,viscosity,"298.15 K, 101.3 kPa, x1 = 0.097",3.255 ± 0.04 mPa·s
same,viscosity,"298.15 K, 101.3 kPa, x1 = 0.2",3.006 ± 0.037 mPa·s
same,viscosity,"298.15 K, 101.3 kPa, x1 = 0.296",2.729 ± 0.034 mPa·s
same,viscosity,"298.15 K, 101.3 kPa, x1 = 0.4",2.477 ± 0.031 mPa·s
same,viscosity,"298.15 K, 101.3 kPa, x1 = 0.499",2.275 ± 0.028 mPa·s
same,viscosity,"298.15 K, 101.3 kPa, x1 = 0.6",2.114 ± 0.026 mPa·s
same,viscosity,"298.15 K, 101.3 kPa, x1 = 0.701",1.997 ± 0.025 mPa·s
same,viscosity,"298.15 K, 101.3 kPa, x1 = 0.8",1.91 ± 0.024 mPa·s
same,viscosity,"298.15 K, 101.3 kPa, x1 = 0.9",1.873 ± 0.024 mPa·s
same,viscosity,"303.15 K, 101.3 kPa, x1 = 0.097",2.831 ± 0.035 mPa·s
same,viscosity,"303.15 K, 101.3 kPa, x1 = 0.2",2.621 ± 0.032 mPa·s
same,viscosity,"303.15 K, 101.3 kPa, x1 = 0.296",2.399 ± 0.03 mPa·s
same,viscosity,"303.15 K, 101.3 kPa, x1 = 0.4",2.2 ± 0.027 mPa·s
same,viscosity,"303.15 K, 101.3 kPa, x1 = 0.499",2.039 ± 0.026 mPa·s
same,viscosity,"303.15 K, 101.3 kPa, x1 = 0.6",1.928 ± 0.024 mPa·s
same,viscosity,"303.15 K, 101.3 kPa, x1 = 0.701",1.822 ± 0.023 mPa·s
same,viscosity,"303.15 K, 101.3 kPa, x1 = 0.8",1.762 ± 0.022 mPa·s
same,viscosity,"303.15 K, 101.3 kPa, x1 = 0.9",1.742 ± 0.022 mPa·s
same,viscosity,"308.15 K, 101.3 kPa, x1 = 0.097",2.452 ± 0.03 mPa·s
same,viscosity,"308.15 K, 101.3 kPa, x1 = 0.2",2.296 ± 0.029 mPa·s
same,viscosity,"308.15 K, 101.3 kPa, x1 = 0.296",2.113 ± 0.026 mPa·s
same,viscosity,"308.15 K, 101.3 kPa, x1 = 0.4",1.954 ± 0.025 mPa·s
same,viscosity,"308.15 K, 101.3 kPa, x1 = 0.499",1.829 ± 0.023 mPa·s
same,viscosity,"308.15 K, 101.3 kPa, x1 = 0.6",1.741 ± 0.022 mPa·s
same,viscosity,"308.15 K, 101.3 kPa, x1 = 0.701",1.67 ± 0.021 mPa·s
same,viscosity,"308.15 K, 101.3 kPa, x1 = 0.8",1.631 ± 0.021 mPa·s
same,viscosity,"308.15 K, 101.3 kPa, x1 = 0.9",1.628 ± 0.021 mPa·s
C=Cc1ccccc1 + CCCCCO,viscosity,"298.15 K, 101.33 kPa, x1 = 0.1003",2.791 ± 0.12 mPa·s
same,viscosity,"298.15 K, 101.33 kPa, x1 = 0.1994",2.141 ± 0.098 mPa·s
same,viscosity,"298.15 K, 101.33 kPa, x1 = 0.3003",1.602 ± 0.075 mPa·s
same,viscosity,"298.15 K, 101.33 kPa, x1 = 0.3977",1.32 ± 0.063 mPa·s
same,viscosity,"298.15 K, 101.33 kPa, x1 = 0.4969",1.112 ± 0.054 mPa·s
same,viscosity,"298.15 K, 101.33 kPa, x1 = 0.5963",0.984 ± 0.049 mPa·s
same,viscosity,"298.15 K, 101.33 kPa, x1 = 0.7027",0.859 ± 0.043 mPa·s
same,viscosity,"298.15 K, 101.33 kPa, x1 = 0.8026",0.783 ± 0.04 mPa·s
same,viscosity,"298.15 K, 101.33 kPa, x1 = 0.9011",0.737 ± 0.038 mPa·s
same,viscosity,"303.15 K, 101.33 kPa, x1 = 0.1003",2.472 ± 0.11 mPa·s
same,viscosity,"303.15 K, 101.33 kPa, x1 = 0.1994",1.984 ± 0.091 mPa·s
same,viscosity,"303.15 K, 101.33 kPa, x1 = 0.3003",1.404 ± 0.067 mPa·s
same,viscosity,"303.15 K, 101.33 kPa, x1 = 0.3977",1.175 ± 0.057 mPa·s
same,viscosity,"303.15 K, 101.33 kPa, x1 = 0.4969",1.013 ± 0.05 mPa·s
same,viscosity,"303.15 K, 101.33 kPa, x1 = 0.5963",0.901 ± 0.045 mPa·s
same,viscosity,"303.15 K, 101.33 kPa, x1 = 0.7027",0.793 ± 0.04 mPa·s
same,viscosity,"303.15 K, 101.33 kPa, x1 = 0.8026",0.741 ± 0.038 mPa·s
same,viscosity,"303.15 K, 101.33 kPa, x1 = 0.9011",0.692 ± 0.036 mPa·s
same,viscosity,"308.15 K, 101.33 kPa, x1 = 0.1003",2.166 ± 0.099 mPa·s
same,viscosity,"308.15 K, 101.33 kPa, x1 = 0.1994",1.638 ± 0.077 mPa·s
same,viscosity,"308.15 K, 101.33 kPa, x1 = 0.3003",1.25 ± 0.06 mPa·s
same,viscosity,"308.15 K, 101.33 kPa, x1 = 0.3977",1.046 ± 0.051 mPa·s
same,viscosity,"308.15 K, 101.33 kPa, x1 = 0.4969",0.915 ± 0.046 mPa·s
same,viscosity,"308.15 K, 101.33 kPa, x1 = 0.5963",0.82 ± 0.042 mPa·s
same,viscosity,"308.15 K, 101.33 kPa, x1 = 0.7027",0.722 ± 0.037 mPa·s
same,viscosity,"308.15 K, 101.33 kPa, x1 = 0.8026",0.68 ± 0.036 mPa·s
same,viscosity,"308.15 K, 101.33 kPa, x1 = 0.9011",0.637 ± 0.034 mPa·s
